Test results: publication PMC8480782, “Efficient Dimerization Disruption of Leishmania infantum Trypanothione Reductase by Triazole-phenyl-thiazoles” (Journal of Medicinal Chemistry, 2021)
Read-outs that look alike come from different tables or passages of the source.

Key:
[1] = tested on: L. infantum axenic amastigotes; assay: Leishmanicidal activity on axenic amastigotes (PI exclusion, flow cytometry); format: cell-based, Leishmania infantum; details: for EC50: Leishmania infantum, axenic amastigotes, 24 h at 37 °C, read-out: EC50 amastigotes
Procedure: (§1) L. infantum promastigotes (MCAN/ES/89/IPZ229/1/89) were grown in Roswell Park Memorial Institute (RPMI)-1640 medium (Sigma-Aldrich, St. Louis, MO) supplemented with 10% heat-inactivated fetal calf serum (FCS), antibiotics, and 25 mM HEPES (pH 7.2) at 26 °C. L. infantum axenic amastigotes (MCAN/ES/89/IPZ229/1/89) were grown in M199 medium (Invitrogen, Leiden, The Netherlands) supplemented with 10% heat-inactivated FCS, 1 g/L β-alanine, 100 mg/L L-asparagine, 200 mg/L sucrose, 50 mg/L sodium pyruvate, 320 mg/L malic acid, 40 mg/L fumaric acid, 70 mg/L succinic acid, 200 mg/L α-ketoglutaric acid, 300 mg/L citric acid, 1.1 g/L sodium bicarbonate, 5 g/L morpholineethanesulfonic acid (MES), 0.4 mg/L hemin, and 10 mg/L gentamicine, pH 5.4, at 37 °C.
Axenization was performed by diluting 0.5 mL of a 7-day stationary phase culture of L. infantum promastigotes (2–3 × 10^7 parasites/mL) in 4.5 mL of amastigotes medium and incubating the culture at 37 °C for 2 or 3 days. L. infantum axenic amastigotes apparition was followed by phase-contrast microscopy using an Eclipse Ti inverted microscope (Nikon, Tokyo, Japan).
(§2) Drug treatment of L. infantum promastigotes was performed during the logarithmic growth phase at a concentration of 2 × 10^6 parasites/mL at 26 °C for 24 h. […] EC50 was evaluated by flow cytometry by the propidium iodide (PI) exclusion method. After selection of the parasite population based on their forward scatter (FSC) and side scatter (SSC) values, live and dead parasite cells were identified by their permeability to PI. All of the assays were conducted in triplicate in at least three independent experiments. Data were analyzed using a nonlinear regression model with GraFit 6 software (Erithacus, Horley, Surrey, U.K.).

[2] = tested on: L. infantum intracellular amastigotes; assay: Leishmanicidal activity in amastigote-infected THP-1 monocyte-derived macrophages; format: cell-based, Leishmania infantum
Procedure: (§3) THP-1 monocytes were seeded in a 48-well plate at a concentration of 5 × 10^5 cells/mL (250 μL/well) in RPMI complete medium supplemented with phorbol 12-myristate 13-acetate (PMA) (100 ng/mL). Differentiation of THP-1 monocytes to macrophages was allowed for 24 h at 37 °C and 5% CO2. THP-1-derived macrophages were infected with GFP-expressing axenic amastigotes at 5 × 10^6 parasites/mL in RPMI complete medium for 24 h (250 μL/well). Extracellular amastigotes were washed twice with PBS. The remaining extracellular parasites were challenged for 24 h with THP-1 medium supplemented with 10% horse serum (Gibco) instead of FCS. Cells were washed twice with PBS, and treatments were performed in 250 μL of fresh RPMI medium supplemented with 10% horse serum for 72 h at 37 °C and 5% CO2. Afterward, treatments were removed by two PBS washes. Lysis of infected cells was performed with 120 μL of SDS 0.005% (w/v) in PBS. After a 30 min incubation at 37 °C, lysis was stopped by adding RPMI complete medium with PI at 20 μg/mL (120 μL/well). The lysates were transferred to a 96-well plate (200 μL/well), and the GFP^+ amastigotes extracted from the infected cells were acquired by a Beckman Coulter FC500 flow cytometer. Each sample (100 μL) was acquired for 20 s.
The relative number of GFP^+ intracellular amastigotes per cell in each sample was estimated after the division of the total number of GFP+ amastigotes by the LDH activity value of the sample. Results were normalized to the vehicle-treated controls. EC50 values of intracellular amastigotes were calculated using a nonlinear regression model with GraFit 6 software (Erithacus, Horley, Surrey, U.K.). All of the assays were conducted in at least three independent experiments.

[3] = biological target: T1, TcoTryR (Trypanosoma congolense, UniProt P13110); assay: TryR oxidoreductase activity, DTNB-coupled assay (TcoTryR); format: biochemical
T1 construct: HIS; made in house; host or cells: E. coli
Text: (§4) The DNA coding sequences for Homo sapiens GR, T. brucei TryR, and T. congolense TryR were polymerase chain reaction (PCR)-amplified and cloned in the pRSETA plasmid. The DNA coding for hGR (transcript variant 1; NCBI Reference Sequence: NM_000637.5) was purchased from GeneScript. Genomic DNA from T. congolense parasites was kindly provided by Dr. Stefan Magez (University of Vrije, Brussels). Genomic DNA from the T. brucei S16 cell line was kindly provided by José M. Pérez-Victoria. Instituto de Parasitología y Biomedicina “López—Neyra” CSIC. HIS-tagged recombinant T. brucei and T. congolense TryRs (TbTryR and TcoTryR, respectively) were purified from E. coli as already explained for LiTryR.
(§5) TryR oxidoreductase activity was determined spectrophotometrically using a modified version of the DTNB-coupled assay described by Hamilton et al.[52] Briefly, reactions were carried out at 26 °C in 250 μL of N-(2-hydroxyethyl)piperazine-N′-ethanesulfonic acid (HEPES) buffer (pH 7.5, 40 mM) containing ethylenediaminetetraacetic acid (EDTA) (1 mM), NADP^+ (30 μM), DTNB (25 μM), TS2 (1 μM), NADPH (150 μM), glycerol (0.02%), DMSO (1.75%), and recombinant TryR (7 nM). […] Reactions were started by addition of a mixture of NADPH and TS2.
(§6) TryR oxidoreductase activity was monitored at 26 °C by an increase in absorbance at 412 nm in an EnSpire Multimode Plate Reader (PerkinElmer, Waltham, MA). […] (TNB) concentration was obtained by multiplying the absorbance values by 100 (50 μM TNB generates 0.5 arbitrary units of absorbance at 412 nm). In this DTNB-coupled assay, one molecule of T(SH)2 reduces one molecule of DTNB, producing two TNB molecules. All of the assays were conducted in at least three independent experiments. Data were analyzed using a nonlinear regression model with GraFit 6 software (Erithacus, Horley, Surrey, U.K.).

[4] = biological target: T2, TbTryR (Trypanosoma brucei brucei, UniProt P39051); assay: TryR oxidoreductase activity, DTNB-coupled assay (TbTryR); format: biochemical; details: read-out: IC50, oxidoreductase activity of TbTryR
T2 construct: HIS; made in house; host or cells: E. coli
Text: as §4, §5, §6

[5] = tested on: THP-1 monocyte-derived macrophages; assay: Cytotoxicity in THP-1 monocyte-derived macrophages (LDH activity); format: cell-based, human; details: LDH activity
Procedure: THP-1 cells were grown in RPMI-1640 medium (Gibco, Leiden, The Netherlands) supplemented with 10% heat-inactivated FCS, antibiotics, 10 mM HEPES, 2 mM glutamine, and 1 mM sodium pyruvate, pH 7.2, at 37 °C and 5% CO2.
as §3
Cytotoxicity of THP-1 infected macrophages was determined using an in-house developed lactate dehydrogenase (LDH) activity assay. LDH activity assays from the remaining cell lysates (100 μL/well) were carried out at 37 °C in 250 μL of Tris/HCl buffer (pH 8.9, 50 mM) containing DL-lactate (840 mM), NAD^+ (450 μM), 1-methoxyphenazine methosulfate (45 μM), and nitro blue tetrazolium chloride (40 μM). The color intensity of the generated formazan dye was monitored at 570 nm using an EnSpire Multimode Plate Reader (PerkinElmer, Waltham, MA). CC50 values were calculated using a nonlinear regression model with GraFit 6 software (Erithacus, Horley, Surrey, U.K.).

[6] = tested on: L. infantum promastigotes; assay: Leishmanicidal activity on promastigotes (PI exclusion, flow cytometry); format: cell-based, Leishmania infantum; details: for EC50: Leishmania infantum, 24 h at 26 °C, read-out: EC50 promastigotes
Procedure: as §1, §2

[7] = tested on: HepG2 cells; assay: Cellular toxicity, crystal violet assay; format: cell-based; details: Homo sapiens, HepG2; 24 h, crystal violet method; read-out: EC50 HepG2
Procedure: Liver hepatocellular carcinoma HepG2 cells were grown in Dulbecco’s modified Eagle’s medium (DMEM) (Sigma-Aldrich, St. Louis, MO) with 10% heat-inactivated FCS, antibiotics, and 10 mM HEPES.
Drug treatment of liver hepatocellular carcinoma HepG2 cells was performed at a concentration of 10^5 cells/mL at 37 °C and 5% CO2 for 24 h. EC50 was evaluated by the crystal violet assay. Briefly, cells were washed with phosphate-buffered saline (PBS) and stained with 200 μL of crystal violet solution (0.2% crystal violet, 2% ethanol) for 10 min at room temperature. Next, the plates were washed twice with tap water and allowed to dry. The stained cells were solubilized with 400 μL of 1% sodium dodecyl sulfate (SDS), and the color intensity was quantified at 570 nm using an EnSpire Multimode Plate Reader (PerkinElmer, Waltham, MA). All of the assays were conducted in triplicate in at least three independent experiments. Data were analyzed using a nonlinear regression model with GraFit 6 software (Erithacus, Horley, Surrey, U.K.).

[8] = Leishmania infantum, THP-1, 72 h, amastigote-infected THP-1 macrophages, 72 h, read-out: EC50 intracellular amastigotes

T1 sequence (P13110 whole entry): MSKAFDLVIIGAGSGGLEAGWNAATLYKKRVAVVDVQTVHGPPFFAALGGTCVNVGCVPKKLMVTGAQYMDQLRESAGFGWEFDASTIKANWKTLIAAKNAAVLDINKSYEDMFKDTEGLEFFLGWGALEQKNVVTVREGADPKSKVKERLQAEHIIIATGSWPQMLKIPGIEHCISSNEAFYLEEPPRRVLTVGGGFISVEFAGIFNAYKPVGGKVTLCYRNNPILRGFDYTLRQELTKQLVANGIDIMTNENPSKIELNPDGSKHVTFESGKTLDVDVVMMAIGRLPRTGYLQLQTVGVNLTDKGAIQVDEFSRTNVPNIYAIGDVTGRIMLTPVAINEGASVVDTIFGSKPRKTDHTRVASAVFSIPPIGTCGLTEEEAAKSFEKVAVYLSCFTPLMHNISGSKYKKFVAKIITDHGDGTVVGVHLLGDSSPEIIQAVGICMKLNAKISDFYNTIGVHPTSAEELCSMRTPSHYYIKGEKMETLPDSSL
T2 sequence (P39051 whole entry): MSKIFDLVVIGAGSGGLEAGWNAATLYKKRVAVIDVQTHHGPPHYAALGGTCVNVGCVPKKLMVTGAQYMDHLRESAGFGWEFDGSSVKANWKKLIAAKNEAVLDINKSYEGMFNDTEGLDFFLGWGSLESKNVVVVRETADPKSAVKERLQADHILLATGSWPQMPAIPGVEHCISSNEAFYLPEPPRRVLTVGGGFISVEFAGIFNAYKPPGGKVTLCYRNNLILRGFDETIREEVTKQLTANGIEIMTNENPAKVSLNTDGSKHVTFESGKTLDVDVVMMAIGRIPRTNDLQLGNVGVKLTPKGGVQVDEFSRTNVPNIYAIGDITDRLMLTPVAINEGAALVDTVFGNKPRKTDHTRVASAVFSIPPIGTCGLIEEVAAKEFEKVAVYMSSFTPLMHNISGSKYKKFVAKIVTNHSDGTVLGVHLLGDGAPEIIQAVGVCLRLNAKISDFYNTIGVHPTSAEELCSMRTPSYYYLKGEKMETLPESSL

Compound	EC50 [1] [µM]	EC50 ([2]; Leishmania infantum, THP-1, 72 h, read-out: EC50 intracellular amastigotes, amastigote-infected THP-1 macrophages, 72 h) [µM]	IC50 [3] [µM]	IC50 [4] [µM]	EC50 ([5]; Homo sapiens, THP-1) [µM]	EC50 [6] [µM]	EC50 [7] [µM]	EC50 [2, 8] [µM]	SI (intracellular amastigotes) ([2]; THP-1 / intracellular amastigotes)	EC50 ([2]; amastigote-infected THP-1 macrophages, 72 h, read-out: EC50 intracellular amastigotes) [µM]	EC50 [5] [µM]	SIa (ratio of EC50 against human cells to EC50 against amastigotes) ([1]; HepG2 / axenic amastigotes)	SIp (ratio of EC50 against human cells to EC50 against promastigotes) ([6]; HepG2 / promastigotes)
NCCCCc1cn(-c2ccc(-c3nc(CCc4ccccc4)cs3)c(OCCN3CCNC3=O)c2)nn1 [12a, 1-(2-(5-(4-(4-Ammoniumbutyl)-1H-1,2,3-triazol-1-yl)-2-(4-phenethylthiazol-2-yl)phenoxy)ethyl)imidazolidin-2-one 2,2,2-Trifluoroacetate]	13.9 ± 0.6	32.4 ± 6.7	11 ± 1.3	13.3 ± 1.9	45 ± 3.1	16.4 ± 0.9	20.3 ± 2.4	–	–	–	–	–	–
C[C@@H]1[C@H](O)[C@@H](C)/C=C/C=C/C=C/C=C/C=C/C=C/C=C/[C@H](O[C@@H]2O[C@H](C)[C@@H](O)[C@H](N)[C@@H]2O)C[C@@H]2O[C@](O)(C[C@@H](O)C[C@@H](O)[C@H](O)CC[C@@H](O)C[C@@H](O)CC(=O)O[C@H]1C)C[C@H](O)[C@H]2C(=O)O [amphotericin B, reference compound]	–	–	–	–	> 5	–	–	0.07 ± 0.01	–	–	–	–	–
edelfosine [reference compound]	–	–	–	–	–	–	–	–	1.4	2.5 ± 0.02	3.5 ± 0.3	–	–
CCCCCCCCCCCCCCCCOP(=O)([O-])OCC[N+](C)(C)C [miltefosine, reference compound]	2 ± 0.1	–	–	–	> 25	47.6 ± 0.6	> 75	0.6 ± 0.1	–	–	–	> 37.5	> 1.6
